Tests used:
[1] = Acute toxicity in mice (LD50); conditions: mouse, in vivo
Text: (§1) For example, the acute toxicities of a compound of the formula (I) wherein R2 represents --NH2 in mice and rats are as shown in Table 1. The acute toxicities of compounds of the formula (I) wherein R2 represents --NHCH3, --SH or --SCH3 are nearly equal to that shown in Table 1.

[2] = Acute toxicity in rats (LD50); conditions: rat, in vivo
Text: as §1

[3] = test system: secretion of acid in the stomach; assay: Inhibition of the secretion of acid in the stomach (pylorus-ligated rats); assay type: in vivo, rats (Donryu male); conditions: duodenum, 6 h; for Acidity / Gastric juice secreted / Inhibition rate (acidity) / Inhibition rate (amount of acid discharged) / Inhibition rate (gastric juice secreted) / Inhibition rate (pepsin activity) / Pepsin activity / Amount of acid discharged: five rats; for Amount of acid discharged: Table 4; for Rate of control of the amount of acid discharged / Rate of control of the amount of pepsin discharged / Rate of inhibition of acidity / Rate of inhibition of the secretion of gastric juice: Table 5, ten rats
Protocol: The pylorus was ligated. Immediately thereafter, a test sample was placed in the duodenum and the abdomen was closed. Six hour after the administration of the test sample, the stomach was taken out under […] anesthesia and the gastric juice was taken out. The gastric juice was centrifuged. The quantity, acidity and pepsin activity of the supernatant liquid were determined. […] The amount of the acid discharged per hour was calculated by multiplying the acidity by the quantity of the juice. Pepsin activity was determined by Anson's method [J. gen. […] The results of the tests of TAS are the averages of the group consisting of ten rats.

[4] = Antiulcer effects (pylorus-ligated rats); assay type: in vivo, rats (Donryu); conditions: duodenum, 8 h
Protocol: Donryu rats weighing 200 to 230 g were used. Each group consisted of 6 rats. After fasting for 72 h, the rats were subjected to an abdominal operation under etheral anesthesia. The pylorus was ligated. Immediately thereafter, a given dose of a test sample was placed in the duodenum. Thereafter, neither food nor water was given. After 8 h, the stomach was taken out under etheral anesthesia and immersed in 1% formalin solution for 10 min. The stomach was cut along the greater curvature. The area of ulcer formed in the forestomach was determined by an anatomico-microscopicobservation (magnification: ×10). The rate of control of the ulcer (%) was calculated as compared with a control.

## Nc1nnc(NCCCOc2cccc(CN3CCCCC3)c2)s1 [2-N-{3-[3-(1-piperidinomethyl)phenoxy]propyl}amino-5-amino-1,3,4-thiadiazole]
[1]; intravenous injection
  LD50: 53.2 mg/kg
[1]; po, peroral
  LD50: 1220 mg/kg
[2]; intravenous injection
  LD50: 91.6 mg/kg
[2]; po, peroral
  LD50: 1410 mg/kg

## Sc1nnc(NCCCOc2cccc(CN3CCCCC3)c2)s1 [H2 --37, 2-N-{3-[3-(1-piperidinomethyl)phenoxy]propyl}amino-5-mercapto-1,3,4-thiadiazole]
[3]; 6.7 mg/kg
  Acidity: 85.0 meq H^+ /l
  Gastric juice secreted: 4.6 mL
  Inhibition rate (acidity): 4.5%
  Inhibition rate (amount of acid discharged): 22.0%
  Inhibition rate (gastric juice secreted): 27.0%
  Inhibition rate (pepsin activity): -7.3%
  Pepsin activity: 5.9 mg/mL
  Amount of acid discharged: 67.0 μEq/h
[3]; 20.0 mg/kg
  Acidity: 81.0 meq H^+ /l
  Gastric juice secreted: 5.2 mL
  Inhibition rate (acidity): 9.0%
  Inhibition rate (amount of acid discharged): 21.0%
  Inhibition rate (gastric juice secreted): 18.0%
  Inhibition rate (pepsin activity): -7.3%
  Pepsin activity: 5.9 mg/mL
  Amount of acid discharged: 68.0 μEq/h
[3]; 60.0 mg/kg
  Acidity: 67.0 meq H^+ /l
  Gastric juice secreted: 3.6 mL
  Inhibition rate (acidity): 24.0%
  Inhibition rate (amount of acid discharged): 57.0%
  Inhibition rate (gastric juice secreted): 43.0%
  Inhibition rate (pepsin activity): 1.8%
  Pepsin activity: 5.4 mg/mL
  Amount of acid discharged: 37.0 μEq/h

## CNC(=C[N+](=O)[O-])NCCSCc1ccc(CN(C)C)o1 [ranitidine, reference compound]
[3]; 6.7 mg/kg
  Rate of control of the amount of acid discharged: 19.3%
  Rate of control of the amount of pepsin discharged: 1.5%
  Rate of inhibition of acidity: 11.3%
  Rate of inhibition of the secretion of gastric juice: 7.7%
[3]; 20.0 mg/kg
  Rate of control of the amount of acid discharged: 54.2%
  Rate of control of the amount of pepsin discharged: -4.5%
  Rate of inhibition of acidity: 28.2%
  Rate of inhibition of the secretion of gastric juice: 23.1%
[3]; 60.0 mg/kg
  Rate of control of the amount of acid discharged: 67.4%
  Rate of control of the amount of pepsin discharged: -3.0%
  Rate of inhibition of acidity: 50.1%
  Rate of inhibition of the secretion of gastric juice: 34.6%
[4]; 100 mg/kg
  Inhibition rate (ulcer): 50%
[4]; 200 mg/kg
  Inhibition rate (ulcer): 85%
